Results reported in US11426381B2, “Lipoic acid choline ester compositions and methods of use” (NOVARTIS AG, priority 2014, dated 2022).
One block for each compound: values may come before it.

Assays:
lens protein disulfides = assay: In vitro mouse lens protein disulfide analysis; conditions: eight month old mouse lenses, 12 hours incubation
Method: (§1) In vitro test: Eight month old mouse lenses (C57BL/6J) were incubated for 12 hours in medium supplemented with selected levels (0-500 μM) of lipoic acid (LA). Lens elasticity was measured using the coverslip method known. After elasticity measurements, lenses were homogenized in a dissociation medium containing alkylating agent 1 (free SH modification). The homogenate was filtered and the rinsed, resuspended, retentate was treated with reducing agent (TCEP) and alkylating agent 2 (S-S SHs modified). After filtration and rinses, the levels of alkylated SH groups in retentate 2 was determined. Bovine serum albumin was the positive control for the sulfhydryl analysis.

mouse lenses (C57BL/6J) = assay: In vitro mouse lens elasticity (coverslip method); conditions: eight month old mouse lenses, 12 hours incubation
Method: as §1

[1] = Stability of LACE chloride in propylene glycol (HPLC potency); format: physicochemical; conditions: 1.0% in propylene glycol
Method: The HPLC method to analyze LACE Chloride used a Phenomenex Luna CN column with a 5 um particle size, 100 A pore size, 2.0 mm inner diameter, and 50 mm length (PN: 00B-4255-B0). The mobile phase consisted of 50% of 0.1 M Sodium Acetate and 50% Acetonitrile. The flow rate was 1.0 mL/min, the detection wavelength was 225 nm, the column temperature was 40° C., the injection volume was 20 uL, and the run time was 50 minutes. The working LACE chloride concentration was 0.1 mg/mL and plastic HPLC vials were used for the analysis.
A solution of LACE chloride in propylene glycol was prepared to determine its stability. A solution of 1.0% LACE chloride in propylene glycol was prepared and stored at −20° C. (ambient RH), 5° C. (ambient RH), and 25° C. (40% RH). The solutions were tested for LACE chloride potency after storage for 3 months.
In these samples, HPLC analysis (using the method described in Example 2) a peak with relative retention time (RRT) of approximately 0.73. […] No additional peaks are detected. The peak at 0.73 RRT is not detected in the LACE chloride solutions in citrate buffer.

[2] = Stability of LACE in neat glycerol; format: physicochemical; conditions: mixed in neat glycerol, 80° C. for 8 hours
Method: Lipoic acid choline ester was mixed in neat glycerol (no water) with brief heating to 80° C. for 8 hours. High concentrations of lipoic acid choline ester in a final clear solution were found. The final clear solution is stable.

[3] = tested on: New Zealand white rabbits; assay: Draize test for eye drop ocular safety; format: in vivo, rabbit; conditions: EV06 3%-5%
Method: Safety of the EV06 was evaluated by the Draize test to evaluate its use at concentrations as high as 5%. The Draize Test is an acute toxicity test devised in 1944 by Food and Drug Administration (FDA) toxicologists John H. Draize and Jacob M. Spines. Initially used for testing cosmetics, the procedure involves applying 0.5 mL or 0.5 g of a test substance to the eye or skin of a restrained, conscious animal, and then leaving it for set amount of time before rinsing it out and recording its effects. Corneal, iris, and conjunctival responses were evaluated using the scale described by Draize et al., J. Pharmacol. & Exp. Therapeutics, 82:377-390 (1944)]. Because of the importance of the cornea to vision, 73% of the Draize score is based on corneal damage. A normal score was 0, increasing amounts of damage result in a higher score, with the maximum score possible being 110. A Draize score was computed at each observation time by averaging the total scores of all rabbits tested. Observations were made and recorded 24, 48, and 72 hours after treatment.
This test consists of instilling 30 to 50 μL of the product into one eye of 6 New Zealand white rabbits and monitoring to observe any abnormal clinical signs such as redness of conjunctiva, swelling, or increased blinking which may indicate irritation.

[4] = Corneal penetration and ocular pharmacokinetics in rabbits (HPLC-ESI/MS/MS); format: in vivo, rabbit
Method: Esters of lipoic acid were evaluated in rabbits for corneal penetration. Rabbits were also used to examine the metabolism, absorption, and distribution of LACE (LA prodrug) using HPLC-ESI/MS/MS (LOD>2 ng/ml).

[5] = Toxicokinetics (plasma levels) in GLP rabbit study; format: in vivo; conditions: rabbits; topical DIOPTIN three times daily
Method: Screening studies were conducted to determine the highest tolerated concentration when applied topically to rabbit eyes, in conjunction with bioanalysis of corneal, aqueous humor, and lens concentrations of EV06 and its metabolites. In a GLP rabbit study, animals were treated with topical 0, 1, 3 or 4% DIOPTIN™ (lipoic acid choline ester) solution three times daily for 90 consecutive days. Slit-lamp exams and fundoscopy were performed at pre-dose baseline and after 1, 30, and 90 days of dosing. Daily clinical observations, food consumption, body weights, clinical pathology, and toxicokinetics were performed. Full necropsy and ocular histopathology were also conducted.

EC50 (lens protein disulfides; 0-500 μM LA, read-out: [LA]50 for decrease in lens protein disulfides): 50 ± 10 µM | EC50 (mouse lenses (C57BL/6J); 0-500 μM LA, read-out: [LA]50 for increase in lens elasticity): 50 ± 10 µM
Compound: O=C(O)CCCCC1CCSS1 (centres unmarked) [LA, lipoic acid]
concentration of maximal effect on lens protein disulfides (lens protein disulfides): 100 µM | concentration of maximal effect on lens elasticity (mouse lenses (C57BL/6J)): 100 µM

stability of LACE chloride in propylene glycol ([1]; 3 months storage at 5° C. and 25° C.): not stable | conversion to peak at RRT approximately 0.73 ([1]; stored at room temperature, 3 months): completely converted
Compound: C[N+](C)(C)CCOC(=O)CCCC[C@@H]1CCSS1.[Cl-] [LACE chloride, lipoic acid choline ester chloride]

stability of clear solution in neat glycerol [2]: stable | corneal penetration compared with lipoic acid [4]: improve penetration over lipoic acid
Compound: C[N+](C)(C)CCOC(=O)CCCC[C@@H]1CCSS1 [LACE, lipoic acid choline ester]
Draize Rabbit Eye test score ([3]; 30 to 50 μL into one eye, scale 0 to 110): 2.0+/−0.6 | Draize test classification ([3]; New Zealand white rabbits): not corrosive or irritating | Plasma levels of EV06 [5]: at or below the limits of detection
